Results as given in US6774132B1, “Spirooxindole derivatives that act as analgesics” (AstraZeneca AB, priority 1999, dated 2004).

CCCN1CCCC2(C1)NC(=O)c1ccccc12.Cl (stereo not shown)
melting point: 110 to 112 °C
